{
  "source": "patent US20140263071A1",
  "about": "“METHOD FOR COLLECTING METALS” (CHEMEC OY AB, priority 2011, published 2014)",
  "key": {"[1]": {"assay": "Purification of ash water from toxic waste disposal plant, TS 3 (Example 18)", "method": "An ash sample (200 g) obtained from toxic waste disposal plant was suspended to water (2.0 l) and stirred for 24 h and filtrated. Approximate metal concentrations (pH 3.62): 1-4 g/l of Ca^2+, K^+ and Na^+, 0.1-0.2 g/l of Al^3+, Mg^2+ and Zn^2+; ≦0.02 g/l of Cd^2+, Mn^2+, Pb^2+ and Sr^2+.\nTS 3, TS 3 diluted to 1:10 (TS 3a), TS 3 diluted to 1:100 (TS 3b) and Cd^2+, Pb^2+ and Zn^2+ spiked samples TS 3a and TS 3b were each treated with 1a (1.0 g) with stirring for 24 h. These five samples were separately filtrated trough 0.2 μm syringe filter and metal concentrations in each solution were determined by ICP-AES method before and after treatment with 1a."}, "[2]": {"assay": "Simultaneous collection of Al, Ga and V from TS 5 at pH 0.5 (Example 23)", "conditions": "spiked TS 5, pH 0.5, 1a 10 g", "method": "A test solution containing 1-15 mg/l of Al^3+, Fe^2/3+, Mg^2+, Mn^2+, Ni^2+ and Zn^2+; 0.1-0.9 mg/l of Ca^2+ and Na^+; and trace amount of other Cr^3+, Co^2+, Cu^2+, Eu^3+, La^3+, Nd^3+, Y^3+, UO2^2+ and Nb^5+ cations were prepared.\nTS 5 (100 ml) was spiked with known amounts of Al^3+, Ga^3+ and V^4+ Merch Titrisol® standard solutions. After pH of the mixture was adjusted to 0.5 by HNO3 sample A was taken followed by adding 1a (10 g). The mixture was stirred at room temperature for 24 h and sample B was taken. Samples A and B were filtrated separately trough 0.2 μm syringe filter and the concentrations of the studied elements in both solution were determined by using ICP-AES method. The expulsion percent for each element were determined from the concentration differences between the sample A and B. The experimental results are given in Table 17."}, "[3]": {"assay": "Collection of Sc^3+ from silicate soil (Example 25)", "conditions": "digested spiked silicate soil solution (20 ml); 1a 100 mg; 24 h", "method": "Silicate soil (1000 g) was spiked with […] (767 mg). A sample (200 mg) was weighted to Teflon vial followed by adding concentrated HCl (9 ml) and HNO3 (3 ml) solutions. The mixture was heated under microwave for 50 min followed by adding HF (3 ml) and microvawe heating was continued until solids were dissolved totally. The resulting solution was treated with 4% H3BO3 (10 ml) with heating and sample A (5 ml) was taken. The rest of the solution (20 ml) was treated with 1a (100 mg) at room temperature for 24 h. After filtration trough 0.2 μm syringe filter Sc^3+ concentration before and after treated was determined by using AAS method to give 87% recovery of Sc^3+."}, "[4]": {"assay": "Collection capacity (Example 10)", "conditions": "100 ppm starting concentration", "method": "A water solution (110 ml) containing known amount of single cationic element or elements, typically 0.5-200 ppm, was prepared from Merch Titrisol® standard solution. After adjusting pH by using acid (e.g. HCl or HNO3) or base (e.g. NaOH) to desired initial value, sample A (10 ml) was taken followed by adding 100 mg of selected solid complexation agent. The mixture was stirred at room temperature for 24 h and sample B (10 ml) was taken. Samples A and B were filtrated separately trough 0.2 μm syringe filter and the concentration of the studied element or elements in both solution was determined by using atomic absorption spectrophotometer. The expulsion percent was determined from the concentration differences between the sample solutions A and B.\nCapacity of 1a to collect selected metals were determined following the general procedure described above by using 100 ppm starting metal concentration in each experiment and 1a (100 mg) at selected pH. Amounts of removed metals from the mixture were determined by using AAS. Results are collected in table 5 and are given in mg of metal bound to 1 g of 1a."}},
  "note": "Marks after values point to notes of the source that are not given here.",
  "data": [
    {"smiles": "NCCCCCCCCCCC(O)(P(=O)(O)O)P(=O)(O)O", "note": "[Compound 1a, 11-Amino-1-hydroxyundecane-1,1-diyldiphosphonic acid]", "values": [
      {"measurement": "Expulsion [%]", "setting": "[1]; Spiked TS 3a, Al^3+", "result": "≥ 79.3^5) %"},
      {"measurement": "Expulsion [%]", "setting": "[1]; Spiked TS 3a, Ca^2+", "result": 88.9, "unit": "%"},
      {"measurement": "Expulsion [%]", "setting": "[1]; Spiked TS 3a, Cd^2+", "result": 75.6, "unit": "%"},
      {"measurement": "Expulsion [%]", "setting": "[1]; Spiked TS 3a, K^+", "result": 1.8, "unit": "%"},
      {"measurement": "Expulsion [%]", "setting": "[1]; Spiked TS 3a, Na^+", "result": 3.5, "unit": "%"},
      {"measurement": "Expulsion [%]", "setting": "[1]; Spiked TS 3a, Pb^2+", "result": "≥ 97.8^5) %"},
      {"measurement": "Expulsion [%]", "setting": "[1]; Spiked TS 3a, Sr^2+", "result": 14.6, "unit": "%"},
      {"measurement": "Expulsion [%]", "setting": "[1]; Spiked TS 3a, Zn^2+", "result": 93.6, "unit": "%"},
      {"measurement": "Expulsion [%]", "setting": "[1]; Spiked TS 3b, Ca^2+", "result": 95.2, "unit": "%"},
      {"measurement": "Expulsion [%]", "setting": "[1]; Spiked TS 3b, Cd^2+", "result": 96.2, "unit": "%"},
      {"measurement": "Expulsion [%]", "setting": "[1]; Spiked TS 3b, K^+", "result": 0.8, "unit": "%"},
      {"measurement": "Expulsion [%]", "setting": "[1]; Spiked TS 3b, Na^+", "result": 7.1, "unit": "%"},
      {"measurement": "Expulsion [%]", "setting": "[1]; Spiked TS 3b, Pb^2+", "result": "≥ 98.1^5) %"},
      {"measurement": "Expulsion [%]", "setting": "[1]; Spiked TS 3b, Sr^2+", "result": 60.2, "unit": "%"},
      {"measurement": "Expulsion [%]", "setting": "[1]; Spiked TS 3b, Zn^2+", "result": 91.3, "unit": "%"},
      {"measurement": "Expulsion [%]", "setting": "[1]; TS 3, Al^3+", "result": "3.4^ %"},
      {"measurement": "Expulsion [%]", "setting": "[1]; TS 3, Ca^2+", "result": 1.9, "unit": "%"},
      {"measurement": "Expulsion [%]", "setting": "[1]; TS 3, Cd^2+", "result": 2.1, "unit": "%"},
      {"measurement": "Expulsion [%]", "setting": "[1]; TS 3, K^+", "result": 2.9, "unit": "%"},
      {"measurement": "Expulsion [%]", "setting": "[1]; TS 3, Mg^2+", "result": 1.5, "unit": "%"},
      {"measurement": "Expulsion [%]", "setting": "[1]; TS 3, Mn^2+", "result": 1.9, "unit": "%"},
      {"measurement": "Expulsion [%]", "setting": "[1]; TS 3, Na^+", "result": 10.8, "unit": "%"},
      {"measurement": "Expulsion [%]", "setting": "[1]; TS 3, Pb^2+", "result": 65.7, "unit": "%"},
      {"measurement": "Expulsion [%]", "setting": "[1]; TS 3, Sr^2+", "result": 2.1, "unit": "%"},
      {"measurement": "Expulsion [%]", "setting": "[1]; TS 3, Zn^2+", "result": 3.6, "unit": "%"},
      {"measurement": "Expulsion [%]", "setting": "[1]; TS 3a (TS 3 diluted 1:10), Al^3+", "result": "≥ 71.8^5) %"},
      {"measurement": "Expulsion [%]", "setting": "[1]; TS 3a (TS 3 diluted 1:10), Ca^2+", "result": 88.1, "unit": "%"},
      {"measurement": "Expulsion [%]", "setting": "[1]; TS 3a (TS 3 diluted 1:10), K^+", "result": 0, "unit": "%"},
      {"measurement": "Expulsion [%]", "setting": "[1]; TS 3a (TS 3 diluted 1:10), Na^+", "result": 2.0, "unit": "%"},
      {"measurement": "Expulsion [%]", "setting": "[1]; TS 3a (TS 3 diluted 1:10), Pb^2+", "result": "≥ 35.5^5) %"},
      {"measurement": "Expulsion [%]", "setting": "[1]; TS 3a (TS 3 diluted 1:10), Sr^2+", "result": 12.5, "unit": "%"},
      {"measurement": "Expulsion [%]", "setting": "[1]; TS 3a (TS 3 diluted 1:10), Zn^2+", "result": 0.0, "unit": "%"},
      {"measurement": "Expulsion [%]", "setting": "[1]; TS 3b (TS 3 diluted 1:100), Ca^2+", "result": 93.1, "unit": "%"},
      {"measurement": "Expulsion [%]", "setting": "[1]; TS 3b (TS 3 diluted 1:100), K^+", "result": 1.6, "unit": "%"},
      {"measurement": "Expulsion [%]", "setting": "[1]; TS 3b (TS 3 diluted 1:100), Na^+", "result": 9.9, "unit": "%"},
      {"measurement": "Expulsion [%]", "setting": "[1]; TS 3b (TS 3 diluted 1:100), Sr^2+", "result": 53.4, "unit": "%"},
      {"measurement": "Expulsion [%]", "setting": "[1]; TS 3b (TS 3 diluted 1:100), Zn^2+", "result": "≥ 48.5^5) %"},
      {"measurement": "Expulsion [%]", "setting": "[2]; Al^3+", "result": "99.8^1) %"},
      {"measurement": "Expulsion [%]", "setting": "[2]; Cr^3+", "result": 0, "unit": "%"},
      {"measurement": "Expulsion [%]", "setting": "[2]; Fe^2/3+", "result": "≥ 97.0^4) %"},
      {"measurement": "Expulsion [%]", "setting": "[2]; Ga^3+", "result": "93.2^2) %"},
      {"measurement": "Expulsion [%]", "setting": "[2]; Mg^2+", "result": 0, "unit": "%"},
      {"measurement": "Expulsion [%]", "setting": "[2]; Mn^2+", "result": 9, "unit": "%"},
      {"measurement": "Expulsion [%]", "setting": "[2]; Ni^2+", "result": 0, "unit": "%"},
      {"measurement": "Expulsion [%]", "setting": "[2]; V^4+", "result": "99.7^3) %"},
      {"measurement": "Expulsion [%]", "setting": "[2]; Zn^2+", "result": 23, "unit": "%"},
      {"measurement": "recovery of Sc^3+", "setting": "[3]", "result": 87, "unit": "%"},
      {"measurement": "Capacity", "setting": "[4]; Ag^+, pH 2.5", "result": 94.6, "unit": "mg/g"},
      {"measurement": "Capacity", "setting": "[4]; Au^3+, pH 4.0", "result": 19.0, "unit": "mg/g"},
      {"measurement": "Capacity", "setting": "[4]; Ca^2+, pH 4.0", "result": 50.9, "unit": "mg/g"},
      {"measurement": "Capacity", "setting": "[4]; Cd^2+, pH 4.0", "result": 74.1, "unit": "mg/g"},
      {"measurement": "Capacity", "setting": "[4]; Co^2+, pH 4.5", "result": 85.5, "unit": "mg/g"},
      {"measurement": "Capacity", "setting": "[4]; Cr^3+, pH 3.5", "result": 9.9, "unit": "mg/g"},
      {"measurement": "Capacity", "setting": "[4]; Cu^2+, pH 4.0", "result": 61.6, "unit": "mg/g"},
      {"measurement": "Capacity", "setting": "[4]; Fe^2+, pH 3.0", "result": 82.7, "unit": "mg/g"},
      {"measurement": "Capacity", "setting": "[4]; Fe^3+, pH 3.0", "result": 15.2, "unit": "mg/g"},
      {"measurement": "Capacity", "setting": "[4]; Mo^6+, pH 9.1", "result": 97.2, "unit": "mg/g"},
      {"measurement": "Capacity", "setting": "[4]; Ni^2+, pH 4.0", "result": 13.1, "unit": "mg/g"},
      {"measurement": "Capacity", "setting": "[4]; Pb^2+, pH 4.0", "result": 85.6, "unit": "mg/g"},
      {"measurement": "Capacity [mg/g]", "setting": "[4]; Sc^3+, pH 2.0", "result": "16.9^1) mg/g"},
      {"measurement": "Capacity", "setting": "[4]; Zn^2+, pH 4.0", "result": 70.9, "unit": "mg/g"}
    ]}
  ]
}
